Like-named read-outs stand apart in the source and are kept apart here. Where a SMILES comes first, the peptide text is derived from it. The star is where a group is joined. Cbz = O=C(OCc1ccccc1)*
Tests used:
p53-FLAG in COS7 cells = assay: p53-FLAG expression in transfected COS7 cells (Western blot); format: cell-based
Protocol: pcDNA3/p53-FLAG was a kind gift from Dr. Nakayama (Kyushu University). pcDNA3/Mdm2 (C438A) was a kind gift from Dr. Yasuda (Tokyo Pharmaceutical College). pCR/CMV/hH1 was a kind gift from Dr. Makita (Hokkaido University). COS7 cells were maintained in Dulbecco’s modified Eagle medium (Gibco BRL)/10% fetal bovine serum at 37 °C in a 5% CO2 incubator. Cells were transfected using lipofectamine (Gibco BRL) according to the instructions provided by the manufacturer. Forty-eight hours after transfection, cells were assayed. Proteasome inhibitors or LAs were applied 36 hours after transfection. All drugs except for MG132 were dissolved in culture medium or distilled water. MG132 was dissolved in dimethyl sulfoxide (DMSO). The final concentration of DMSO in the culture or reaction medium was equal to or less than 0.01% v/v. Pilsicainide was kindly provided by Daiichi Suntory Pharmaceutical Co., Ltd. (Osaka, Japan).
(§1) The same amounts (10 μg) of protein were separated on SDS-PAGE and electro-transferred to a polyvinylidene difluoride membrane. Membranes were probed with antibodies against FLAG (1:1000, Cosmo Bio), GFP (1:1000, Molecular Probes), ubiquitin (1:1000, MBL) or β-actin (1:1000, Oncogene) and were developed using an ECL detection system. Immunoprecipitation was carried out in PBS/1% Triton X-100, 0.5% SDS, 0.25% sodium deoxycholate, 1 mM ethylenediaminetetraacetic acid (EDTA), and 10 μg/ml aprotinin, 10 μg/ml leupeptine, 10 μg/ml pepstatin and 1 mM phenylmethylsulfonylfluoride for 2 h at 4 °C. Immune complexes were collected with protein G agarose (GE Healthcare Life Science) and bound proteins were analyzed by SDS-PAGE followed by immunoblotting.

20S proteasome [1] = target: T1, 20S proteasome (Homo sapiens, UniProt P28074+P49721); assay: 20S proteasome activity (chymotrypsin-like, Suc-Leu-Leu-Val-Tyr-MCA substrate); format: biochemical; settings: for IC50: 37 °C, 1 h
T1 construct: purchased Calbiochem
Protocol: 20S Proteasome activity was assessed by fluorescence of free AMC (7-Amino-4-methylcoumarin, excitation: 380 nm, emission: 460 nm) liberated from a substrate peptide (Suc-Leu-Leu-Val-Tyr-MCA). The reaction mixture contained the 20S proteasome (500 μg/ml), the substrate peptide (10 μM) and the indicated drugs in 25 mM HEPES, 0.5 mM EDTA, 0.03% SDS, pH 7.6. The mixture was incubated at 37 °C for 1 h. AMC fluorescence liberated in the absence of drugs was taken as the basal value (100%). The fluorescence liberated in the absence of SDS was taken as the background value (0%)[13]. Most of the activity assays were conducted using an assay kit (Calbiochem), but some were conducted in hand-made buffer solutions.
Concentration dependence of the effects of each drug on the stability of the short-lived protein and the 20S proteasome activity was fitted using the following equation: B%=Bmax·[Drug]^n/(IC50^n+[Drug]^n) where, B% represents the changes in expression of the short-lived protein and the 20S proteasome activity induced by drugs at a given concentration of the [drug], and Bmax represents the maximum attainable reduction. IC50 and n are the half-maximal inhibitory concentration and Hill coefficient, respectively.

20S proteasome [2] = target: T1, 20S proteasome; assay: [3H]-pilsicainide binding assay; settings: displacement of [3H]-pilsicainide, 1 h, room temperature
Protocol: Commercially available 20S proteasome was purchased from Calbiochem. LAs and their derivatives at increasing concentrations (10^–8 to 10^–2 M) were incubated with [^3H]-pilsicainide for 1 h at room temperature in buffer containing 50 mM HEPES supplemented with 1% bovine serum albumin (pH 7.4). Following the reaction termination by addition of 100% […], the bound and unbound ligands were separated by centrifugation. Specific binding was defined as the difference between binding capacities in the pellet and supernatant.

p53 in MKN45 cells = assay: Endogenous p53 expression in MKN45 cells (Western blot); format: cell-based; settings: 24 h
Protocol: Cell lysates were analyzed by Western blot analysis (a). Quantitative analysis of p53-FLAG stability using densitometry is shown in (b). Each point was expressed relative to the values in the absence of drugs (100%). […] Cell lysates were analyzed by Western blot analysis (c). Quantitative analysis of the protein level of endogenous p53 was conducted using densitometry (d).
as §1

MKN45 cells [3] = assay: Proliferation of MKN45 cells (MTT assay); format: cell-based; settings: 24 h, p53-expressing cells
From the text: Figure 4 Effects of LAs on cancer cells. (a) Effects of LAs on the proliferation of MKN45 cells. […] Proliferation of […] was estimated by MTT assays.

Kato III cells = assay: Proliferation of Kato III cells; format: cell-based; settings: 24 h; pilsicainide 1 μM, lidocaine 20 μM; cells do not express p53
[4] = target: T2, wild-type 20S proteasome trypsin-like activity (Saccharomyces cerevisiae, UniProt P25043); assay: Trypsin-like activity of the wild-type 20S proteasome; format: biochemical
T2 construct: U.B. purified the yeast 20S proteasome and assayed proteasome activity; made in house; host or cells: yeast (purified from wild-type cells; inferred)

[5] = target: T3, wild-type 20S proteasome caspase-like activity (Saccharomyces cerevisiae, UniProt P38624); assay: Caspase-like activity of the wild-type 20S proteasome; format: biochemical
T3 construct: U.B. purified the yeast 20S proteasome and assayed proteasome activity; made in house; host or cells: yeast (purified from wild-type cells; inferred)

MKN45 cells [6] = assay: Tumor growth of pretreated MKN45 cells transplanted into mice; format: in vivo; settings: MKN45 cells pretreated with drug, transplanted into the intestine of SOD SKID mice
20S proteasome [7] = target: T1, 20S proteasome; parameters: method as in PMID 23026372; settings: previously reported; cited from earlier work
[8] = COS7 cells transfected with p53-FLAG
[9] = COS7 cells, dominant negative Mdm2 (C438A), 12 h, MG132 50 µM, pilsicainide 20 µM, lidocaine 1 mM

CC(C)C[C@@H](C=O)NC(=O)[C@H](CC(C)C)NC(=O)[C@H](CC(C)C)NC(=O)OCc1ccccc1 [MG132] (Cbz-Leu-Leu-Leu-aldehyde)
Effect on p53-FLAG with co-expression of the C438A mutant of Mdm2 (in words) (p53-FLAG in COS7 cells): abolished the effects
Expression of p53-FLAG protein (in words) (p53-FLAG in COS7 cells): increased the expression of p53-FLAG

NC1=N[C@H](O)[C@H]2[C@H]3O[C@]4(O)O[C@@H]([C@@H](O)[C@@]2(N1)[C@@H]4O)[C@]3(O)CO [Tetrodotoxin]
Effect on 20S proteasome activity (in words) (20S proteasome [1]): did not inhibit 20S proteasome activity

O=C(CC12CCCN1CCC2)Nc1ccc(F)cc1 [4-F]
Effect on 20S proteasome activity (in words) (20S proteasome [1]; in vitro): partially inhibited
Expression of p53-FLAG protein (in words) (p53-FLAG in COS7 cells; [8]): partially increased
Kd (20S proteasome [2]): 20 ± 3.2 µM
Endogenous p53 protein level (in words) (p53 in MKN45 cells): increased p53 a little

Cc1cccc(C)c1NC(=O)CC12CCCN1CCC2 [pilsicainide]
Proliferation of MKN45 cells (in words) (MKN45 cells [3]): suppressed proliferation of MKN45 cells in a dose-dependent manner
Effect on 20S proteasome activity (in words) (20S proteasome [1]; in vitro): inhibited 20S proteasome activity
IC50 (20S proteasome [1]; in vitro): 3.5 ± 1.5 µM
Suppression of proliferation of Kato III cells (in words) (Kato III cells): not observed
Expression of p53-FLAG protein (in words) (p53-FLAG in COS7 cells; [8]): increased the expression of p53-FLAG
Effect on p53-FLAG with co-expression of the C438A mutant of Mdm2 (in words) (p53-FLAG in COS7 cells; [9]): abolished the effects
Trypsin-like activity inhibition (in words) [4]: not inhibited
Kd (20S proteasome [2]): 1 ± 2.8 µM
Caspase-like activity inhibition (in words) [5]: not inhibited
Endogenous p53 protein level (in words) (p53 in MKN45 cells): increased the p53 protein level in MKN45 cells in a dose-dependent manner

Cc1cccc(CCN2CCC(C(=O)c3ccc(NS(C)(=O)=O)cc3)CC2)n1 [E-4031]
Effect on 20S proteasome activity (in words) (20S proteasome [1]; in vitro): Neither the Ca^2+ channel blocker verapamil which contains two aromatic rings, nor the K^+ channel blocker E-4031, affected the activity

CCN(CC)CC(=O)Nc1c(C)cccc1C [lidocaine]
Proliferation of MKN45 cells (in words) (MKN45 cells [3]): suppressed proliferation of MKN45 cells in a dose-dependent manner
Tumor growth of transplanted MKN45 cells (in words) (MKN45 cells [6]): significantly decreased the proliferation of MKN45 cells
Tumor growth of transplanted MKN45 cells (in words) (MKN45 cells [6]; listed as Lidocaine): suppression of tumor growth
Effect on 20S proteasome activity (in words) (20S proteasome [1]; in vitro): inhibited 20S proteasome activity
Suppression of proliferation of Kato III cells (in words) (Kato III cells): not observed
Expression of p53-FLAG protein (in words) (p53-FLAG in COS7 cells; [8]): increased the expression of p53-FLAG
Effect on p53-FLAG with co-expression of the C438A mutant of Mdm2 (in words) (p53-FLAG in COS7 cells; [9]): abolished the effects
Kd (20S proteasome [2]): 21.2 ± 3.5 µM
Endogenous p53 protein level (in words) (p53 in MKN45 cells): increased the p53 protein level in MKN45 cells in a dose-dependent manner

CCN(CC)CCCN(c1ccccc1)C1Cc2ccccc2C1 [aprindine]
Effect on 20S proteasome activity (in words) (20S proteasome [1]; in vitro): inhibit the 20S proteasome

O=C(CC12CCCN1CCC2)Nc1ccccc1F [2-F]
Effect on 20S proteasome activity (in words) (20S proteasome [1]; in vitro): partially inhibited
IC50 (20S proteasome [1]; in vitro): 21.5 ± 46.8 µM

Cc1cccc(C)c1OCC(C)N (stereo not drawn) [mexiletine]
Effect on 20S proteasome activity (in words) (20S proteasome [1]; in vitro): inhibit the 20S proteasome
IC50 (20S proteasome [1]; in vitro): 14 ± 6.3 µM

CC(C)COCC(CN(Cc1ccccc1)c1ccccc1)N1CCCC1 (stereo not drawn) [bepridil]
Inhibitory action on the proteasome (in words) (20S proteasome [7]): did not show the inhibitory action on the proteasome

O=C(CC12CCCN1CCC2)Nc1cccc(F)c1 [3-F]
Effect on 20S proteasome activity (in words) (20S proteasome [1]; in vitro): partially inhibited
IC50 (20S proteasome [1]; in vitro): 20.5 ± 21.8 µM

COc1ccc(CCN(C)CCCC(C#N)(c2ccc(OC)c(OC)c2)C(C)C)cc1OC (stereo not drawn) [verapamil]
Effect on 20S proteasome activity (in words) (20S proteasome [1]): Neither the Ca^2+ channel blocker verapamil which contains two aromatic rings, nor the K^+ channel blocker E-4031, affected the activity
